PubChem BioAssay (NCI)
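Each compound was tested at five concentrations against cells in 96-well plates for 48 hours. GI50 = concentration required for 50% inhibition of growth. The concentration for full growth arrest is given as TGI.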

Columns and labels:
Assay in all cases: NCI tumour cell line growth inhibition, 48 h
[1] = system: 786-0 renal
[2] = system: CAKI-1 renal
[3] = system: HL-60(TB) leukemia
[4] = system: NCI-H226 lung
[5] = system: OVCAR-3 ovarian
[6] = system: OVCAR-4 ovarian
[7] = system: SNB-19 CNS
[8] = system: UO-31 renal
[9] = system: DU-145 prostate
[10] = system: PC-3 prostate

Structure (SMILES) | TGI [1] | TGI [2] | TGI [3] | TGI [4] | TGI [5] | TGI [6] | TGI [7] | TGI [8] | GI50 [1] | GI50 [2] | GI50 [9] | TGI [9] | GI50 [5] | GI50 [6] | GI50 [10] | TGI [10] | GI50 [7] | GI50 [8]
CC(=O)NC1C(OCc2ccccc2)OC(COC(=O)CCCCCCCCCCNC(=O)c2cccc3c(=O)c4ccccc4[nH]c23)C(O)C1OC(C)C(=O)NC(C)C(=O)NC(CCC(N)=O)C(N)=O (stereo unspecified) | > 100 µM | > 100 µM | > 100 µM | > 100 µM | > 100 µM | > 100 µM | > 100 µM | > 100 µM | – | – | – | – | – | – | – | – | – | –
c1ccc(SCCCC(Sc2ccccc2)Sc2ccccc2)cc1 | > 100 µM | > 100 µM | > 100 µM | – | > 100 µM | > 100 µM | > 100 µM | > 100 µM | – | – | – | – | – | – | – | – | – | –
CC(C)c1ccc(/C=C(\NC(=O)c2ccccc2)c2nc3ccccc3[nH]2)cc1 | > 100 µM | > 100 µM | – | > 100 µM | > 100 µM | > 100 µM | > 100 µM | > 100 µM | – | – | – | – | – | – | – | – | – | –
O=c1oc(-c2ccc(O)c(O)c2)cc2cc(O)cc(O)c12 | > 100 µM | > 100 µM | – | – | > 100 µM | > 100 µM | > 100 µM | > 100 µM | 39.6 µM | 33.6 µM | 32.4 µM | > 100 µM | 35.3 µM | 76.6 µM | 31.6 µM | > 100 µM | 56.3 µM | 18.5 µM
c1ccc2c(c1)CCCc1cc3ccccc3nc1-2 | > 100 µM | > 100 µM | – | – | > 100 µM | > 100 µM | > 100 µM | > 100 µM | – | – | – | – | – | – | – | – | – | –
COC(=O)/C(=N\NC(=O)c1ccccc1O)C(C#N)c1ccc(Cl)cc1 (stereo unspecified) | > 100 µM | – | > 100 µM | – | > 100 µM | > 100 µM | – | 37.3 µM | – | – | – | – | – | – | – | – | – | –
COc1ccc([Se]c2ccc(OC)cc2OC)c(OC)c1 | > 100 µM | > 100 µM | > 100 µM | 83.3 µM | > 100 µM | > 100 µM | > 100 µM | 65.8 µM | – | – | – | – | – | – | – | – | – | –
C/C(=N\NS(=O)(=O)c1ccc(C)cc1)c1ccc[n+]([O-])n1 | > 100 µM | 85.3 µM | 91 µM | – | > 100 µM | > 100 µM | > 100 µM | > 100 µM | – | – | – | – | – | – | – | – | – | –
CCOC(=O)/C=C1\Nc2ccccc2C(c2ccccc2)=NC1OC(C)=O (stereo unspecified) | > 100 µM | > 100 µM | > 100 µM | – | > 100 µM | > 100 µM | – | > 100 µM | – | – | – | – | – | – | – | – | – | –
CCC1OCCN1C(C)C (stereo unspecified) | > 100 µM | – | > 100 µM | – | – | – | > 100 µM | > 100 µM | – | – | – | – | – | – | – | – | – | –
O=C(OCc1ccccc1CN1CCOCC1)c1ccc(Br)cc1 | > 100 µM | – | – | > 100 µM | 83.2 µM | > 100 µM | > 100 µM | > 100 µM | – | – | – | > 100 µM | – | – | – | > 100 µM | – | –
Clc1ccc2c(Cl)ncnc2c1 | > 100 µM | > 100 µM | > 100 µM | > 100 µM | > 100 µM | > 100 µM | > 100 µM | > 100 µM | – | – | – | – | – | – | – | – | – | –
CC1OC(=O)N(CCCC=C2SCCCS2)C1=O (stereo unspecified) | > 100 µM | – | – | > 100 µM | > 100 µM | > 100 µM | > 100 µM | > 100 µM | – | – | – | – | – | – | – | – | – | –
